From patent publication US9687479B2, “Multisubstituted aromatic compounds as serine protease inhibitors” (VERSEON CORPORATION, priority 2013, dated 2017)
Like-named read-outs stand apart in the source and are kept apart here.

Biological target: Human KLKB1 (Homo sapiens (Human), UniProt P03952)
Assay: KLKB1 kallikrein activity inhibition assay (chromogenic substrate S-2302)
Type: biochemical
Experimental: The KLKB1 kallikrein activity reported herein (e.g., Tables B, C, and D) was obtained as follows. Human KLKB1 protein was obtained from Enzyme Research Labs. […] KLKB1 was assayed in buffer containing 0.05 M Tris (pH 7.4), 0.01 M NaCl and 0.2% w/v PEG-8000. The final concentration of enzyme used was 3 nM KLKB1. […] All assays were performed in 96-well microtiter plates at room temperature (RT). […] Inhibitor IC50 values were determined by adding test compound as ten point, three-fold serial dilutions in buffer solution, as known in the art. The plate was read at 10 minutes after substrate addition. The IC50 was calculated by plotting the percent (%) inhibition against compound concentration and fitting the data to a constrained four parameter sigmoidal curve, as known in the art.

[1] = 3 nM KLKB1, 250 μM S-2302, 10 min pre-incubation, RT

Sequence of Human KLKB1 (P03952 391-638 limits assumed): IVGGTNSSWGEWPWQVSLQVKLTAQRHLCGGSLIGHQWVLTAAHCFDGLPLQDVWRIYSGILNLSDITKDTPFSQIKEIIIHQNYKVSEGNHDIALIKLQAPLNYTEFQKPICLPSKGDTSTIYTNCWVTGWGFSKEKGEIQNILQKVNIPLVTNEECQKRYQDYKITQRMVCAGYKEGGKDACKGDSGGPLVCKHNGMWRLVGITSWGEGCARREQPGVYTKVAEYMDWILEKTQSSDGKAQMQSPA
Sequence of Human KLKB1 (P03952 20-390 partner limits assumed): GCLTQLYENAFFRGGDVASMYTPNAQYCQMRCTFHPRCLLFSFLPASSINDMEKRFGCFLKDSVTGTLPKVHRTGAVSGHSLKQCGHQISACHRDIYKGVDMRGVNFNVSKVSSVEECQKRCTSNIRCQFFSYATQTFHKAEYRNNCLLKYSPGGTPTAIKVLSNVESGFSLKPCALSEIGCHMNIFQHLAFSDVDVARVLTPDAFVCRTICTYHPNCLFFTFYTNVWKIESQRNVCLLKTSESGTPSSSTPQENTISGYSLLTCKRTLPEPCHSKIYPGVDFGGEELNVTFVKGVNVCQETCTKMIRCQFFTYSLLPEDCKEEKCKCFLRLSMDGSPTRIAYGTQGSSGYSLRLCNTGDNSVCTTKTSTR

COc1ccccc1C(=O)n1nc(-c2ccc(N3CCOCC3)cc2)nc1NCc1ccc(Cl)s1 [Cmpd 389]
IC50 (Table C): 1 to 10 µM

O=C(c1ccoc1)n1nc(-c2ccccn2)cc1NCc1ccc(Cl)s1 [Cmpd 288]
IC50 (Table B): 10 to 100 µM

O=C(c1cccs1)n1nc(-c2ccccn2)nc1NCc1ccc(F)cc1 [Cmpd 10]
IC50 (Table C): 1 to 10 µM

O=C(c1ccoc1)n1nc(C2CCCO2)nc1NCc1ccc(Cl)s1 (stereo not shown) [Cmpd 392]
IC50 (Table C): 0.1 to 1 µM

COc1ccc(CNc2nc(-c3ccccn3)nn2C(=O)Cc2ccccc2)cc1 [Cmpd 321]
IC50 (Table C): 10 to 100 µM

COc1ccccc1C(=O)n1nc(C2CN(S(=O)(=O)N3CCCC3)C2)nc1NCc1ccc(Cl)s1 [Cmpd 388]
IC50 (Table C): < 0.1 µM

O=C(CCc1ccccc1)n1nc(-c2ccncc2)nc1NCc1ccccc1 [Cmpd 354]
IC50 (Table C): > 100 µM

O=C(CCc1ccccc1)n1nc(-c2ccccn2)nc1NCc1ccc(F)cc1 [Cmpd 305]
IC50 (Table C): 10 to 100 µM

CCC(=O)n1nc(-c2ccccn2)nc1NCc1ccccc1 [Cmpd 348]
IC50 (Table C): 10 to 100 µM

O=C(NCc1ccc2[nH]cc(Cl)c2c1)[C@H]1CC(=O)N(Cc2ccccc2Cl)C1 [Cmpd 417, (3S)-N-[(3-chloro-1H-indol-5-yl)methyl]-1-[(2-chlorophenyl)methyl]-5-oxopyrrolidine-3-carboxamide]
IC50 [1]: 10 to 100 µM

CCCC(=O)n1nc(-c2cccnc2)nc1NCc1ccc(F)cc1 [Cmpd 314]
IC50 (Table C): 10 to 100 µM

CC(C)CC(=O)n1nc(-c2ccncc2)nc1NCc1ccc(F)cc1 [Cmpd 316]
IC50 (Table C): > 100 µM

Cc1cc(N(C)c2ccccc2)nc(N[C@H]2CCc3c(N)cccc3C2)n1 [Cmpd 422, 2-N-[(2S)-5-amino-1,2,3,4-tetrahydronaphthalen-2-yl]-4-N,6-dimethyl-4-N-phenylpyrimidine-2,4-diamine]
IC50 [1]: > 100 µM

CCC(=O)n1nc(-c2cccnc2)nc1NCc1cccs1 [Cmpd 340]
IC50 (Table C): 10 to 100 µM

COc1ccc(CNc2nc(-c3ccccn3)nn2C(=O)c2ccoc2)cc1 [Cmpd 338]
IC50 (Table C): 10 to 100 µM

COc1ccccc1C(=O)n1nc(-c2cccnc2)nc1SCc1ccc(F)cc1 [Cmpd 14]
IC50 (Table C): 0.1 to 1 µM

CCC(=O)n1nc(-c2ccccn2)nc1NCc1ccc(F)cc1 [Cmpd 307]
IC50 (Table C): 10 to 100 µM

Cc1cc(N(C)c2ccc(Cl)cc2)nc(N[C@H]2CCc3c(N)cccc3C2)n1 [Cmpd 425, 2-N-[(2S)-5-amino-1,2,3,4-tetrahydronaphthalen-2-yl]-4-N-(4-chlorophenyl)-4-N,6-dimethylpyrimidine-2,4-diamine]
IC50 [1]: > 100 µM

O=C(c1ccsc1)n1nc(-c2ccccn2)nc1NCc1ccccc1 [Cmpd 405]
IC50 (Table C): 10 to 100 µM

COc1ccc(CNc2nc(-c3ccccn3)nn2C(=O)c2ccsc2)cc1 [Cmpd 380]
IC50 (Table C): 1 to 10 µM

CCC(=O)n1nc(-c2cccnc2)nc1NCc1ccc(F)cc1 [Cmpd 7]
IC50 (Table C): 10 to 100 µM

COc1ccc(CNc2nc(-c3cccnc3)nn2C(=O)c2ccsc2)cc1 [Cmpd 382]
IC50 (Table C): 1 to 10 µM

COc1ccccc1C(=O)n1nc(-c2ccco2)nc1NCc1ccccc1 [Cmpd 403]
IC50 (Table C): 1 to 10 µM

COc1ccc(CNc2nc(-c3cccnc3)nn2C(=O)c2cccs2)cc1 [Cmpd 381]
IC50 (Table C): > 100 µM

CC(C)(CO)C(=O)n1nc(C2CCNCC2)c(F)c1NCc1ccc(Cl)s1 [Cmpd 274]
IC50 (Table B): 1 to 10 µM

O=C(Cc1ccccc1)n1nc(-c2ccco2)nc1NCc1ccccc1 [Cmpd 343]
IC50 (Table C): > 100 µM

COc1ccccc1C(=O)n1nc(-c2ccccc2)nc1NCc1nccs1 [Cmpd 333]
IC50 (Table C): > 100 µM

O=C(c1ccsc1)n1nc(-c2ccncc2)nc1NCc1ccc(F)cc1 [Cmpd 11]
IC50 (Table C): 1 to 10 µM

COc1ccccc1C(=O)n1nc(-c2ccccn2)cc1NCc1ccco1 [Cmpd 283]
IC50 (Table B): > 100 µM

CCC(=O)n1nc(-c2ccncc2)nc1NCc1ccc(F)cc1 [Cmpd 318]
IC50 (Table C): > 100 µM

CC(C)C(=O)n1nc(-c2ccccn2)nc1NCc1ccc(F)cc1 [Cmpd 302]
IC50 (Table C): 10 to 100 µM

CC(C)(C)C(=O)n1nc(-c2cccnc2)nc1NCc1ccc(F)cc1 [Cmpd 308]
IC50 (Table C): 10 to 100 µM

CC(C)(C)OC(=O)N1CCC(c2cc(NCc3ccc(Cl)s3)n(C(=O)c3ccsc3)n2)CC1 [Cmpd 298]
IC50 (Table B): > 100 µM

COc1ccc(CNc2nc(-c3ccccn3)nn2C(=O)c2ccco2)cc1 [Cmpd 336]
IC50 (Table C): 1 to 10 µM

COc1ccccc1C(=O)n1nc(-c2ncccc2F)cc1NCc1ccc(Cl)s1 [Cmpd 290]
IC50 (Table B): > 100 µM

COc1ccccc1C(=O)n1nc(C2CN(S(=O)(=O)N(C)C)C2)nc1NCc1ccc(Cl)s1 [Cmpd 364]
IC50 (Table C): < 0.1 µM

Cn1cc(Cl)c2cc(CNC(=O)[C@H]3CC(=O)N(Cc4ccc(Cl)cc4)C3)ccc21 [Cmpd 416, (3S)-N-[(3-chloro-1-methyl-1H-indol-5-yl)methyl]-1-[(4-chlorophenyl)methyl]-5-oxopyrrolidine-3-carboxamide]
IC50 [1]: 10 to 100 µM

O=C(c1cccnc1)n1nc(-c2cccnc2)nc1NCc1cccs1 [Cmpd 365]
IC50 (Table C): 1 to 10 µM

CC(C)CC(=O)n1nc(-c2ccccn2)nc1NCc1ccc(F)cc1 [Cmpd 304]
IC50 (Table C): 10 to 100 µM

O=C(c1ccoc1)n1nc(-c2cccnc2)nc1NCc1ccc(F)cc1 [Cmpd 372]
IC50 (Table C): 1 to 10 µM

O=C(c1c(F)cccc1F)n1nc(-c2ccccn2)nc1NCc1ccccc1 [Cmpd 394]
IC50 (Table C): > 100 µM

CCCC(=O)n1nc(-c2ccncc2)nc1NCc1ccc(F)cc1 [Cmpd 317]
IC50 (Table C): > 100 µM

COc1ccc(CNc2nc(-c3ccccn3)nn2C(=O)CC(C)C)cc1 [Cmpd 322]
IC50 (Table C): 10 to 100 µM

CC(C)(C)C(=O)n1nc(-c2ccccn2)nc1NCc1ccccc1 [Cmpd 344]
IC50 (Table C): 10 to 100 µM

O=C(c1ccoc1)n1nc(-c2ccccc2)c(F)c1NCc1ccc(Cl)s1 [Cmpd 295]
IC50 (Table B): > 100 µM

Cc1cc(N(C)c2ccccc2Cl)nc(N[C@H]2CCc3c(N)cccc3C2)n1 [Cmpd 423, 2-N-[(2S)-5-amino-1,2,3,4-tetrahydronaphthalen-2-yl]-4-N-(2-chlorophenyl)-4-N,6-dimethylpyrimidine-2,4-diamine]
IC50 [1]: 10 to 100 µM

CCC(=O)n1nc(-c2ccccn2)nc1NCc1ccc(OC)cc1 [Cmpd 325]
IC50 (Table C): 10 to 100 µM

O=C(c1ccco1)n1nc(-c2cccnc2)nc1NCc1ccc(F)cc1 [Cmpd 370]
IC50 (Table C): 1 to 10 µM

O=C(c1ccoc1)n1nc(-c2cccs2)cc1NCc1ccc(Cl)s1 [Cmpd 289]
IC50 (Table B): > 100 µM

CC(C)(C)C(=O)n1nc(-c2ccccn2)nc1NCc1ccc(F)cc1 [Cmpd 301]
IC50 (Table C): 10 to 100 µM

COc1ccc(CNc2nc(-c3ccccn3)nn2C(=O)C(C)(C)C)cc1 [Cmpd 319]
IC50 (Table C): 10 to 100 µM

COc1ccccc1C(=O)n1nc(-c2ccccc2)c(F)c1NCc1ccccc1 [Cmpd 296]
IC50 (Table B): > 100 µM

COc1ccccc1C(=O)n1nc(-c2ccccc2)nc1NCc1ccc(Cl)o1 [Cmpd 383]
IC50 (Table C): > 100 µM

O=C(NCc1ccc2[nH]cc(Cl)c2c1)[C@@H]1CC(=O)N(Cc2ccc(Cl)cc2)C1 [Cmpd 414, (3R)-N-[(3-chloro-1H-indol-5-yl)methyl]-1-[(4-chlorophenyl)methyl]-5-oxopyrrolidine-3-carboxamide]
IC50 [1]: > 100 µM

CC(C)C(=O)n1nc(-c2ccncc2)nc1NCc1ccccc1 [Cmpd 351]
IC50 (Table C): 1 to 10 µM

COCC(=O)n1nc(-c2cccnc2)nc1NCc1ccc(F)cc1 [Cmpd 309]
IC50 (Table C): > 100 µM

O=C(NCc1ccc2[nH]cc(Cl)c2c1)[C@H]1CC(=O)N(Cc2ccccc2)C1 [Cmpd 415, (3S)-1-benzyl-N-[(3-chloro-1H-indol-5-yl)methyl]-5-oxopyrrolidine-3-carboxamide]
IC50 [1]: > 100 µM

O=C(c1ccco1)n1nc(-c2ccccn2)nc1NCc1ccccc1 [Cmpd 8]
IC50 (Table C): 1 to 10 µM

O=C(Cc1ccccc1)n1nc(-c2ccncc2)nc1NCc1ccccc1 [Cmpd 352]
IC50 (Table C): > 100 µM

O=C(c1cccs1)n1nc(-c2cccnc2)nc1NCc1ccc(F)cc1 [Cmpd 376]
IC50 (Table C): 1 to 10 µM

CC(C)C(=O)n1nc(-c2cccnc2)nc1NCc1ccc(F)cc1 [Cmpd 310]
IC50 (Table C): 10 to 100 µM

COc1ccccc1C(=O)n1nc(-c2ccccn2)nc1NCc1ccccc1 [Cmpd 397]
IC50 (Table C): 1 to 10 µM

COc1ccccc1C(=O)n1nc(-c2ccccn2)nc1NCc1ccc(F)cc1 [Cmpd 367]
IC50 (Table C): 1 to 10 µM

COC(=O)c1n[nH]c(NC(=O)c2ccc(C)cc2)n1 [Cmpd 408, methyl 5-[(4-methylbenzene)amido]-1H-1,2,4-triazole-3-carboxylate]
IC50: > 100 µM

CCCn1nc(-c2ccccn2)nc1NCc1ccc(F)cc1 [Cmpd 374]
IC50 (Table C): > 100 µM

O=C(c1ccccc1Cl)n1nc(-c2ccccn2)nc1NCc1ccccc1 [Cmpd 395]
IC50 (Table C): 0.1 to 1 µM

CCCC(=O)n1nc(-c2ccccn2)nc1NCc1ccccc1 [Cmpd 347]
IC50 (Table C): 10 to 100 µM

CC(C)(C)C(=O)n1nc(-c2ccccn2)c(F)c1NCc1ccccc1 [Cmpd 279]
IC50 (Table B): > 100 µM

CC(C)CC(=O)n1nc(-c2ccccn2)nc1NCc1ccccc1 [Cmpd 346]
IC50 (Table C): 10 to 100 µM

COc1ccc(CNc2nc(-c3cccnc3)nn2C(=O)Cc2ccccc2)cc1 [Cmpd 327]
IC50 (Table C): 10 to 100 µM

CC(C)(CO)C(=O)n1nc(-c2ccccc2)c(F)c1NCc1ccc(Cl)s1 [Cmpd 275]
IC50 (Table B): > 100 µM

CC(C)(C)C(=O)n1nc(C2CCCO2)nc1NCc1ccc(Cl)s1 (stereo not shown) [Cmpd 331]
IC50 (Table C): 1 to 10 µM

COc1ccccc1C(=O)n1nc(C2CCOCC2)cc1NCc1ccc(Cl)s1 [Cmpd 284]
IC50 (Table B): > 100 µM

O=C(Cc1ccccc1)n1nc(-c2cccnc2)nc1NCc1ccc(F)cc1 [Cmpd 311]
IC50 (Table C): 1 to 10 µM

COc1ccccc1C(=O)n1nc(-c2ccncn2)nc1NCc1ccccc1 [Cmpd 16]
IC50 (Table C): 0.1 to 1 µM

CC(C)(C)OC(=O)N1CCC(c2cc(NCc3ccc(Cl)s3)n(C(=O)C(C)(C)C)n2)CC1 [Cmpd 297]
IC50 (Table B): > 100 µM

O=C(c1ccccc1)n1nc(-c2cccnc2)nc1NCc1ccc(F)cc1 [Cmpd 359]
IC50 (Table C): 0.1 to 1 µM

CC(C)C(=O)n1nc(-c2ccccn2)nc1NCc1ccccc1 [Cmpd 345]
IC50 (Table C): 10 to 100 µM

CC(C)CC(=O)n1nc(-c2cccnc2)nc1NCc1ccc(F)cc1 [Cmpd 312]
IC50 (Table C): 10 to 100 µM
